Source: patent US11655239B2 (SHANGHAI INSTITUTE OF MATERIAL MEDICA, CHINESE ACADEMY OF …, priority 2019, dated 2023)

Assays:
Flt-3 = Flt-3 (Homo sapiens (Human), UniProt P36888); experiment: Enzyme selectivity test (ELISA), Flt-3; assay type: biochemical
Procedure: (§1) 1) Enzyme reaction substrate Poly(Glu, Tyr) 4:1 was diluted to 20 μg/mL with potassium-free PBS (10 mM sodium phosphate buffer, 150 mM NaCl, pH 7.2-7.4), and the microtiter plate was coated with 125 μL/well and placed at 37° C. for 12-16 hours of reaction. The liquid in the well was discard. The plate was washed three times with T-PBS (potassium-free PBS containing 0.1% Tween-20, 200 μL/well), 5 minutes each time. The ELISA plate was dried in an oven at 37° C. for 1 to 2 hours.
(§2) 2) Reaction buffer (50 mM HEPES pH 7.4, 50 mM MgCl2, 0.5 mM MnCl2, 0.2 mM Na3VO4, 1 mM DTT) diluted ATP solution (49 μL) was added to each well, 1 μL of the compound to be tested was added to each well, and then 50 μL of DDR2 kinase domain recombinant protein diluted in the reaction buffer was added to start the reaction. Two control wells without ATP were set in each experiment. The plate placed on a shaker (100 rpm) at 37° C. for 1 hour of reaction. The liquid in the well was discarded and the plate was washed three times with T-PBS.
(§3) 3) Antibody PY99 dilution solution (the antibody was diluted 1:500 with T-PBS containing BSA 5 mg/mL) was added at 100 μL/well, and shaken on a shaker at 37° C. for 0.5 hour of reaction. The liquid in the well was discarded and the plate was washed three times with T-PBS.
(§4) 4) Horseradish peroxidase labeled goat anti-murine secondary antibody dilution solution (the antibody is diluted 1:2000 with T-PBS containing BSA 5 mg/ml) was added at 100 μL/well, and shaken on a shaker at 37° C. for 0.5 hour of reaction. The liquid in the well was discarded and the plate was washed three times with T-PBS.
(§5) 5) 2 mg/ml of OPD color developing solution [diluted with 0.1 M citric acid-sodium citrate buffer (pH=5.4) containing 0.03% H2O2] was added at 100 μL/well and reacted for 1 to 10 minutes at 25° C. in the dark.
(§6) 6) 2M H2SO4 was added at 50 μL/well to stop the reaction, and a tunable wavelength microplate reader VERSAmax was used for reading at a wavelength of 490 nm.
(§7) The IC50 value was obtained by four-parameter regression using the software that came with the microplate reader. […]

ErbB4 = ErbB4 (Homo sapiens (Human), UniProt Q15303); experiment: Enzyme selectivity test (ELISA), ErbB4; assay type: biochemical
Procedure: as §1, §2, §3, §4, §5, §6, §7

[1] = test system: lung fibroblast cell line MRC-5; experiment: Cytotoxic activity test (MTS), MRC-5; assay type: cell-based, human; settings: 10 μM
Procedure: (§8) Experimental objective: The cytotoxic activity of compound S15 on bronchial epithelial cell line Beas-2B and lung fibroblast cell line MRC-5 was tested.
(§9) 1) The human bronchial epithelial cell line Beas-2B and the human embryonic lung fibroblast cell line MRC-5 were collected, and inoculated at a certain density (about 5000-10000 cells) on a 96-well plate (the edge wells were filled with sterile water or PBS). A control was set on each plate (100 μL of culture medium was added);
(§10) 2) The plate was incubated overnight at 37° C., 5% CO2. The plate was turned upside down and observed under the microscope.
(§11) 3) The solutions of different concentrations of the compounds to be tested were added to each well, and a control well (culture medium and MTS solution with cells but no drug) and a blank well (without cells, medium and MTS solution) were set, 3 to 5 repetition wells were set for each group. Incubation was performed at 37° C. for 48-72 hours.
(§12) 4) 10 μL/well of MTS/PMS (20:1, Promega Corp) solution was added to each well containing 100 μL of culture medium, and then the plate was gently shaken. The plate was incubated at 37° C. for 2 to 4 hours.
(§13) 5) M5 microplate reader (Molecular Device, USA) was used to measure the absorbance of the solution at 490 nm. […]

DDR2 = experiment: Phosphorylation level of DDR2 (Western Blot); assay type: cell-based, human; settings: MRC-5, TGF-β1 treatment
Procedure: 1) Preparation of cell protein samples: the cell culture liquid was discarded, wash was performed once with PBS, and samples were collected by adding 1×SDS-Loading. after the samples were collected, they were placed in a metal bath at 100° C., and the samples were boiled for 10 minutes, and then the samples were stored at 4° C. for waiting for subsequent test.
2) Gel preparation and sample loading: according to the molecular weight of the detected protein, different concentrations of separation gel were selected. after filling the 1× electrophoresis buffer, an equal volume of protein sample 4 μl and protein marker were added on the far left to right in sequence.
When the sample was in the concentrated gel, the voltage was set to 80 V; when the sample was electrophoresed to the separation gel, the voltage was increased to 120 V until the bromophenol blue was electrophoresed to reach the bottom of the gel, and the electrophoresis ended. […]
8) Secondary antibodies: the film with the primary antibodies was rewarmed and incubated for about half an hour, and then the primary antibodies were recovered and the film was washed quickly with TBST solution 3 times, 10 minutes each time. […] The dilution ratio of the secondary antibody dedicated for DDR2 was 1:5000; The dilution ratio for the rest of the secondary antibodies were 1:8000, ready for use. […]

IGF-1R = IGF-1R (Homo sapiens (Human), UniProt P08069); experiment: Enzyme selectivity test (ELISA), IGF-1R; assay type: biochemical
Procedure: as §1, §2, §3, §4, §5, §6, §7

[2] = test system: bronchial epithelial cell line Beas-2B; experiment: Cytotoxic activity test (MTS), Beas-2B; assay type: cell-based, human; settings: 10 μM
Procedure: as §8, §9, §10, §11, §12, §13

Sequence of ErbB4 (Q15303 26-1308, species assumed): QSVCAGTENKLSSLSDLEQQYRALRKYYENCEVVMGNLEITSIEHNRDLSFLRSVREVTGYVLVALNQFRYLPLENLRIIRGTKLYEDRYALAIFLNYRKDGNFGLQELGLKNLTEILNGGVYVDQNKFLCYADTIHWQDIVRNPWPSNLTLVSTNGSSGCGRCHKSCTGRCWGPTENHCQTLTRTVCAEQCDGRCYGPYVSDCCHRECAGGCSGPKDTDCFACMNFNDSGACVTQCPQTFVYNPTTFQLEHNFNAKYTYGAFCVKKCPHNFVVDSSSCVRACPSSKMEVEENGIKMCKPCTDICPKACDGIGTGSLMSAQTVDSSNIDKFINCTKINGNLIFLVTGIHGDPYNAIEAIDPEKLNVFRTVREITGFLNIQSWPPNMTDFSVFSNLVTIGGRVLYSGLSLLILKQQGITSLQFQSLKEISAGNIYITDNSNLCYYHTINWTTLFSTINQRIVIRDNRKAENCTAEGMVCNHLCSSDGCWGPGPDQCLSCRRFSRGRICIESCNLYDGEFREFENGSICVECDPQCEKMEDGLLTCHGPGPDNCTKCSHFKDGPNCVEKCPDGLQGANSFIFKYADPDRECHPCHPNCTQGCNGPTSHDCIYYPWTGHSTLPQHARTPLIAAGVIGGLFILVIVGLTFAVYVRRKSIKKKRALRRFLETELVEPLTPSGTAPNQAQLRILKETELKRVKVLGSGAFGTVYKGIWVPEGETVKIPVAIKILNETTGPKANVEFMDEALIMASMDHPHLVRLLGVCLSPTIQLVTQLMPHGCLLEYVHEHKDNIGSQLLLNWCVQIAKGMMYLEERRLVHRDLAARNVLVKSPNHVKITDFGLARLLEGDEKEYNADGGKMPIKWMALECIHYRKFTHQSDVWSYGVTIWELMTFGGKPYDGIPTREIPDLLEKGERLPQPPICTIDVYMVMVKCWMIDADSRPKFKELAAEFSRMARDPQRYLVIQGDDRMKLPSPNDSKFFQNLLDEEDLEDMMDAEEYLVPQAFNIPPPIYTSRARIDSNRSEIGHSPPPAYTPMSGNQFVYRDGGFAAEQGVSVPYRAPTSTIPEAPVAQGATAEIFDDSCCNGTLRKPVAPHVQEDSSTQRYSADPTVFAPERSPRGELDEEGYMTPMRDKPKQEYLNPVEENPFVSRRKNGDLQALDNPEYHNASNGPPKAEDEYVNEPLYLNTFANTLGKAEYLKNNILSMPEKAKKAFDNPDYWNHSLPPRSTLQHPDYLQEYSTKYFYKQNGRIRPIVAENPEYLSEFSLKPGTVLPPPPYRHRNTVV
Sequence of IGF-1R (P08069 31-1367, species assumed): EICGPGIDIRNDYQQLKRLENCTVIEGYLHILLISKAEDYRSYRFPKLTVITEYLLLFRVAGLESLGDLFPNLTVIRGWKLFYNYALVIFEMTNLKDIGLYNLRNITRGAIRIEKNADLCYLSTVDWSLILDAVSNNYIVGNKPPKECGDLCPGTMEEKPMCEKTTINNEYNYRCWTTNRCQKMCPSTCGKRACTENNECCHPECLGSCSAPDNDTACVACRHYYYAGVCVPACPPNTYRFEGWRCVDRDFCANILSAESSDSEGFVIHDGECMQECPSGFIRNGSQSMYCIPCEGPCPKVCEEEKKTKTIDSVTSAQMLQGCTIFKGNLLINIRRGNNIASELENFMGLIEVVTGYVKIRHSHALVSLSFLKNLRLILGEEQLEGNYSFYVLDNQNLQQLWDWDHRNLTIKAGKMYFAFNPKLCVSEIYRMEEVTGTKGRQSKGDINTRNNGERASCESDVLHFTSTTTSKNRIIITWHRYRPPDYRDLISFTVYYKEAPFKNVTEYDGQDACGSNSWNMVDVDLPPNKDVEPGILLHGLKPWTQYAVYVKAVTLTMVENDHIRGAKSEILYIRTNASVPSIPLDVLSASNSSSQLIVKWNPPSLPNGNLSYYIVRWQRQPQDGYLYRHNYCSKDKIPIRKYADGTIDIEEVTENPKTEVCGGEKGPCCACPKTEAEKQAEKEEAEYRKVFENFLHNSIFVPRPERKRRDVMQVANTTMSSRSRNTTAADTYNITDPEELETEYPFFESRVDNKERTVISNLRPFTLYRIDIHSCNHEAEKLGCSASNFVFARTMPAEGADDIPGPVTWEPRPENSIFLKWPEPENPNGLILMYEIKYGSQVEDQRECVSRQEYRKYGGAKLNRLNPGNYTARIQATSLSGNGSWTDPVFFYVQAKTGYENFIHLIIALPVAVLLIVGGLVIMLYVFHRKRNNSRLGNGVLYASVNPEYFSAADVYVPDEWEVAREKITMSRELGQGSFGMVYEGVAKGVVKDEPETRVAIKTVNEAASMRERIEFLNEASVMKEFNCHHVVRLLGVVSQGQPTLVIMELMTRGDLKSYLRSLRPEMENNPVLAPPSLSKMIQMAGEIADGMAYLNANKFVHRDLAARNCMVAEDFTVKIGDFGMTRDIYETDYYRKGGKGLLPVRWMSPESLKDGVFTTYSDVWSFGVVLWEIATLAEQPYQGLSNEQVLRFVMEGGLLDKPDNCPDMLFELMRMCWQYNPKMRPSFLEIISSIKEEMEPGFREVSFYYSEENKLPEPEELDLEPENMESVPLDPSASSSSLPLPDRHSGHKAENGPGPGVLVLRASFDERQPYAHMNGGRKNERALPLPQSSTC
Sequence of Flt-3 (P36888 27-993, species assumed): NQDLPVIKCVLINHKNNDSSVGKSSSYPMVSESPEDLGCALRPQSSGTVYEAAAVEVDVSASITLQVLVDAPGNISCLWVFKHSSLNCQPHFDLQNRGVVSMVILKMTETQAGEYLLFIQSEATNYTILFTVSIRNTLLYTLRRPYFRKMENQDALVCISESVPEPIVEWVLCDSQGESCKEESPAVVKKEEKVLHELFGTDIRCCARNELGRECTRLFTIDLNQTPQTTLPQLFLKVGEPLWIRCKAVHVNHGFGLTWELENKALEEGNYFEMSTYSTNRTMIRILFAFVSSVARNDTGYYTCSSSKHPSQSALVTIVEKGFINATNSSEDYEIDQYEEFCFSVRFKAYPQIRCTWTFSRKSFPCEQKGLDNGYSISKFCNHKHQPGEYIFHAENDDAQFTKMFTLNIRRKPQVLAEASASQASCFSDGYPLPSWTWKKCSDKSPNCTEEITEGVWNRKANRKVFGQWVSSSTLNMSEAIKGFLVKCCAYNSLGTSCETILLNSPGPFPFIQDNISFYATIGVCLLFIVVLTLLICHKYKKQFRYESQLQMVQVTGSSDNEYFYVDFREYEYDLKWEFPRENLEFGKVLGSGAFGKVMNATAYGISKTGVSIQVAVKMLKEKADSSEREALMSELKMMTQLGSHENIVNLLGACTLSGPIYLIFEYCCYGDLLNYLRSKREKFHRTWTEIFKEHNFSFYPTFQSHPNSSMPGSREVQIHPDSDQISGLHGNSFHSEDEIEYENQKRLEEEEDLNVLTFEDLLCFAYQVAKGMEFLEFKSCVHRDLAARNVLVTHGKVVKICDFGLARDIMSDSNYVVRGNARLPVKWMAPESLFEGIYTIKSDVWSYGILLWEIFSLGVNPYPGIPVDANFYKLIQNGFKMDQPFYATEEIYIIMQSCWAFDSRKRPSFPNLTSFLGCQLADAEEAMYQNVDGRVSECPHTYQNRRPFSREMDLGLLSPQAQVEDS

In the case of O=C(Nc1cccc(C(F)(F)F)c1)c1ccc(C2CC2)c(-c2ccc3nc(Nc4cnn(C5CC5)c4)ncc3c2)c1 [Compound S15, 4-cyclopropyl-3-(2-((1-cyclopropyl-1H-pyrazol-4-yl)amino)quinazolin-6-yl)-N-(3-(trifluoromethyl)phenyl)benzamide], the IC50 (Flt-3) is reported as greater than 1000 nM, the IC50 (ErbB4) is reported as greater than 10 nM and the “cytotoxic activity on MRC-5” value [1] is reported as “almost no toxicity”. For the same compound, the “phosphorylation level of DDR2” value (DDR2) was “effectively inhibit the phosphorylation level of DDR2”, the IC50 (IGF-1R) was greater than 1000 nM and the “cytotoxic activity on Beas-2B” value [2] was “almost no toxicity”.
